According to patent US8674061B2, “Multiligand constructs” (priority 2008, dated 2014):

What was measured:
Format in all cases: binding
Conditions in all cases: relative to 6′SLN = 1, KD based on concentration of sialic acid residues, averaged
[1] = system: influenza virus A/Nib/26/90M (H3N2)
[2] = system: influenza virus B/Nib/48/90M
[3] = system: influenza virus A/Nib/23/89M-MA (H1N1)

Neu5Acα2-6Galβ1-4GlcNAcβ-O— [6′SLN, reference compound]
1: Relative inhibitory activity of tetraligand constructs [1] | Relative inhibitory activity of triligand constructs [1] | Relative inhibitory activity of tetraligand constructs [2] | Relative inhibitory activity of triligand constructs [2] | Relative inhibitory activity of tetraligand constructs [3] | Relative inhibitory activity of triligand constructs [3]
